According to publication PMC8773213, “In Vitro Anticancer Activity and Mechanism of Action of an Aziridinyl Galactopyranoside” (Biomedicines, 2021):
Where two headings read alike, the source gives them in different places.

Tests used:
[1] = test system: AA8 cells (NER proficient); experiment: MTT cell viability assay, AA8 cells; assay type: cell-based, Chinese hamster; details: then 48 h in drug-free medium, read-out: IC50 (mean ± SEM), AA8 cells
Procedure: (§1) Exponentially growing cells were seeded in 96-well plates and allowed to attach and grow for 24 h. The cells were then treated with increasing concentrations of the tested drugs. At the end of the treatment period, cell viability was measured with the MTT assay or the resazurin assay, two widely used techniques.
(§2) In the case of the MTT assay, this technique detects viable cells using the ability of these cells to reduce the yellow tetrazolium MTT to an insoluble colored formazan product. Subsequently, this product was solubilized and analyzed by spectrophotometry. Dead cells cannot reduce the MTT into the colored formazan product. Briefly, 24 h after plating, cells were treated with the tested compounds for 48 h; except in experiments with DNA repair-proficient and -deficient cell lines, in which cells were only exposed for 24 h to drugs and allowed to grow for an additional 48 h in drug-free medium to allow them to repair possible DNA damage induced by the tested drugs. […] Finally, plates were incubated overnight at 37 °C and optical densities were measured at 540 nm using an absorbance spectrophotometer microplate reader.
(§3) In both assays, cell viability was expressed as percentage compared to untreated cells. Results were expressed as the means ± standard error of the mean (SEM). […]

[2] = test system: VH10 (Human skin non-malignant cells); experiment: Resazurin cell viability assay, VH10; assay type: cell-based; details: 72 h, read-out: IC50 (Mean ± SEM, µM), VH10
Procedure: as §1
(§4) The resazurin assay is a redox-based colorimetric/fluorometric technique based on the ability of viable cells to reduce the blue compound resazurin into the pink, fluorescent and soluble product resorufin. The amount of resorufin produced is generally proportional to the number of living cells. In this assay, 24 h after seeding, cells were exposed to the tested drugs for 72 h. Then 100 μL resazurin in medium was added to each well (final concentration of 10 μg/mL) and, one hour later the fluorescence intensity was measured at 530/590 nm (excitation/emission) using a fluorescence microplate reader.
(§5) In both assays, cell viability was expressed as percentage compared to untreated cells. Results were expressed as the means ± standard error of the mean (SEM). All data are from at least three independent experiments.

[3] = test system: BJ-hTERT (hTERT-immortalized skin non-malignant BJ cells); experiment: Resazurin cell viability assay, BJ-hTERT; assay type: cell-based; details: Homo sapiens, 72 h, read-out: IC50 (Mean ± SEM, µM), BJ-hTERT
Procedure: as §1, §4, §5

[4] = test system: U2OS (Human osteosarcoma cells); experiment: Resazurin cell viability assay, U2OS; assay type: cell-based; details: 72 h, read-out: IC50 (Mean ± SEM, µM), U2OS
Procedure: as §1, §4, §5

AA8 cells = experiment: Comet assay (DNA damage); assay type: cell-based, Chinese hamster; details: 4 h
From the text: The single cell gel electrophoresis assay, also known as comet assay, is a widely used technique for the study of levels of damage in cellular DNA. In this assay, individual cells embedded in agarose are lysed, electrophoresed, stained with a fluorescent dye and examined under an epifluorescence microscope. […] The quantity of DNA present in the tail is indicative of DNA damage. This assay has been described in detail by Singh et al.. We followed this protocol with minor modifications previously described. Briefly, standard slides were immersed in 1% normal melting agarose at 55 °C, left to allow the agarose to solidify and kept at 4 °C until use. Cells were seeded in 6-well plates, allowed to grow for 24 h and then cells were exposed to AzGalp or CTP (positive control) for 4 h. At the end of the treatment, cells were harvested by trypsinization, washed with PBS and resuspended in PBS at a concentration of approximately 1 million cells/mL; 10 µL cell suspension was mixed with 85 μL of low-melting agarose (LMA) at 37 °C and the mixture was quickly added to the slides with the first layer of agarose, spread using a coverslip and kept at 4 °C for 8 min to allow the LMA to solidify. The coverslips were then removed and another layer of 100 μL of LMA at 37 °C was added, covered with a coverslip and allowed to solidify at 4 °C for 8 min. After removing the coverslips, the slides were incubated in the dark for 1 h at 4 °C in a lysis buffer (pH 10.0) containing 0.25 M NaOH, 10% DMSO, 1% Triton X-100, 10 mM Tris-HCl, 100 mM Na2-EDTA and 2.5 M NaCl. Next, alkaline denaturation with electrophoretic buffer (300 mM NaOH and 1 mM Na2-EDTA) was carried out in an electrophoresis chamber for 20 min and then electrophoresis was performed at 1 V/cm for 20 min. […] DNA damage levels were quantified for each cell and expressed as percent of DNA in the tail and as the tail moment (defined as the product of the tail length and the fraction of total DNA in the tail). The results were averaged from two independent experiments and expressed as mean ± SEM.

[5] = test system: HL-60 (Human acute promyelocytic leukemia cells); experiment: Resazurin cell viability assay, HL-60; assay type: cell-based; details: 72 h, read-out: IC50 (Mean ± SEM, µM), HL-60
Procedure: as §1, §4, §5

[6] = test system: HeLa (Human cervical carcinoma cells); experiment: Resazurin cell viability assay, HeLa; assay type: cell-based; details: 72 h, read-out: IC50 (Mean ± SEM, µM), HeLa
Procedure: as §1, §4, §5

[7] = test system: UV4 cells (mutated in ERCC1, NER deficient); experiment: MTT cell viability assay, UV4 cells; assay type: cell-based, Chinese hamster
Procedure: as §1, §2, §3

[8] = test system: MRC-5 (Human lung non-malignant cells); experiment: Resazurin cell viability assay, MRC-5; assay type: cell-based; details: MRC5, 72 h, read-out: IC50 (Mean ± SEM, µM), MRC-5
Procedure: as §1, §4, §5

[9] = test system: BJ-SV40T (SV40T-transformed BJ-hTERT cells); experiment: Resazurin cell viability assay, BJ-SV40T; assay type: cell-based; details: Homo sapiens, 72 h, read-out: IC50 (Mean ± SEM, µM), BJ-SV40T
Procedure: as §1, §4, §5

`Cc1ccc(S(=O)(=O)N2CC2(C)CO[C@@H]2O[C@@H]3CO[C@H](c4ccccc4)O[C@@H]3[C@H](OCc3ccccc3)[C@H]2OCc2ccccc2)cc1` (stereo partly drawn) [AzGalp, 2-methyl-2,3-[N-(4-methylbenzenesulfonyl)imino]propyl 2,3-di-O-benzyl-4,6-O-(S)-benzylidene-β-D-galactopyranoside] was tested. Which IC50 ([1]; 24 h exposure) did it give?
Its IC50 is 319 ± 77.2 µM.

And the IC50 ([1]; Cricetulus griseus, CHO-AA8, 24 h exposure)?
The IC50 was 397 ± 142 µM.

What about the IC50 [2] of the same molecule?
The IC50 was 411 ± 39.4 µM.

What about the IC50 [3] of the same molecule?
The IC50 was 209 ± 24.2 µM.

What about the IC50 [4] of the same molecule?
The IC50 was 120 ± 8 µM.

And the “Level of DNA damage in comet assay” value (AA8 cells; 50 µM AzGalp versus 10 µM CPT)?
Its value is “lower than that of the DNA-damaging agent CPT”.

And the “Cells with higher levels of DNA damage than untreated cells” value (AA8 cells; 50 µM)?
Its value is “approximately 30%”.

What about the IC50 [5] of the same molecule?
Its IC50 is 11.1 ± 0.9 µM.

And the IC50 [6]?
Its IC50 is 191 ± 35.8 µM.

And the IC50 ([7]; Cricetulus griseus, UV4, 24 h exposure, then 48 h in drug-free medium, read-out: IC50 (means ± SEM), UV4 cells)?
Its IC50 is 58.6 ± 9.3 µM.

And the “Sensitivity of NER-deficient cells relative to NER-proficient cells” value ([7]; UV4 and UV5 versus AA8)?
The value was “approximately six times more sensitive”.

What about the IC50 [8] of the same molecule?
The IC50 was 341 ± 85 µM.

And the IC50 [9]?
Its IC50 is 143 ± 8.1 µM.
